Consider 10 compounds from patent US4254128A, “2-Adamantyl hydrazines and biocidal compositions thereof” (Teva Pharmaceutical Industries Ltd., priority 1977, dated 1981).

Experiment [1] deals with Leptospira canicola Kipod 146. The experiment can be described thus: Anti leptospiral activity (minimal inhibition concentration). The class given is cell-based. As to conditions: for MIC: Leptospira interrogans, KIPOD146, 240 h; for anti leptospiral activity: summary in words. As to the method: The tests were carried out under the following conditions:
Leptospira: Leptospira canicola Kipod 146
Inoculum: 1-10^5 cells/ml
Incubation time: 10 days, 28° C.
Evaluation: Direct count in dark field microscopy after 4,7 and 10 days.
2 Minimal+0.5% albumin (Pentex)
3 Korthof rich medium with 8% serum.
4 Korthof rich medium with 2% serum.

Another experiment has as its system Trypanosoma. The experiment can be described thus: Anti trypanosoma test in vitro. In kind it is cell-based. As to conditions: for Trypanosoma in vitro activity score: 37° C., scoring as in b (promastigotes); for activity against Trypanosoma: summary in words. The procedure: Trypanosoma in RPM1 medium in vitro at 37° C. Scoring as in b.
A further experiment deals with L. tropica amastigotes. Description: Anti leishmania test, amastigotes in peritoneal exudate cells in vitro. In kind it is cell-based. As to conditions: 37° C. As to the method: (§1) a. amastigotes in peritoneal exudate cells in Mc Coy's medium in vitro at 37° C.
+++=clearance of all parasites in 24 hours
++=clearance of all parasites in 48 hours
+=clearance of all parasites in 72 hours
±=Partial clearance of parasites in 72 hours or more
-=No activity against parasites.

The test system of the next experiment is L. tropica promastigotes. Description: Anti leishmania test, promastigotes in vitro. The class given is cell-based. As to conditions: 27° C. As to the method:
(§2) b. promastigotes in Mc Coy's medium in vitro at 27° C.
+++=No viable parasites after 24 hours
++=No viable parasites after 48 hours
+=No viable parasites after 72 hours
±=No viable parasites after 96 hours p2 -=viable parasites after 120 hours.

The subject of the next experiment is Leishmania. Description: Anti leishmania tests, summary. The class given is cell-based, L. tropica. As to conditions: summary in words. The procedure: as §1, §2
The next experiment deals with albino rats. Description: Antiparkinson activity (catalepsy produced by haloperidol). As to conditions: 80 mg/kg i.p. The class given is in vivo, Male Charles River albino rats. As to the method: Male Charles River albino rats, weighing 200-250 g, were used. Catalepsy was produced by haloperidol, 5 mg/kg i.p. The animals were placed with their front paws on a horizontal bar, about 10 cm above the ground, and animals were considered cataleptic if not changing posture for at least 30 sec. Cataleptic animals were injected i.p. with one of the drugs at a dose of 40-80 mg/kg. Catalepsy was estimated again at the intervals indicated.

Experiment [2] deals with albino mice. Description: Stereotyped behaviour in mice. Also noted: stereotyped behaviour score / Total Score / Mean Score: scale not given here. As to conditions: 50 mg/kg i.p. In kind it is in vivo, Male ICR albino mice. As to the method: Male ICR albino mice weighing 25-30 g were put in cages with a metal grid floor, 4 in each cage. Drugs were injected intraperitoneally and stereotyped behaviour (sniffing, biting, repetitive head movement) was evaluated every 30 min.

In experiment [3] the test system is albino mice. The experiment can be described thus: Stereotyped behaviour in mice. In kind it is in vivo, Male ICR albino mice. Also on record: scale not given here. As to conditions: 50 mg/kg i.p.
Setting [4] is: minimal + Pentex (0.5% albumin).

Where a name gives a salt, the structure may show the parent alone.

For the compound `c1ccc(NNC2C3CC4CC(C3)CC2C4)cc1` (stereo not drawn) [Example 3, 1-(2'-Adamantyl)-2-phenylhydrazine hydrochloride], the MIC is 100 µg/mL in experiment [1] (Korthof + 8% serum) and 6.25 µg/mL in experiment [1] (minimal medium). Further, in experiment [1], the anti leptospiral activity entry is recorded as “active”. Moreover, the “Trypanosoma in vitro activity score” value is “+ (No viable parasites after 72 hours)” in the experiment with Trypanosoma (10 μg) and “+++ (No viable parasites after 24 hours)” with Trypanosoma (100 μg). Further, the “activity against Trypanosoma” value in the experiment with Trypanosoma is “active”.

As for `CC(NNC1C2CC3CC(C2)CC1C3)C(=O)O` (stereo not drawn) [Example 38, α-[2-(2'-Adamantyl)hydrazino]propionic acid hydrochloride], the “Leishmania amastigote activity score” value in the experiment on L. tropica amastigotes (100 μg) is “++ (clearance of all parasites in 48 hours)”. Moreover, the “Leishmania promastigote activity score” value with L. tropica promastigotes (10 μg) was “± (No viable parasites after 96 hours)”; in the experiment on L. tropica promastigotes (100 μg) it was “++ (No viable parasites after 48 hours)”. The “activity against Leishmania” value in the experiment on Leishmania was “active”.

Turning to `CC(C)NNC1C2CC3CC(C2)CC1C3` (stereo not drawn) [Example 51, 1-(2'-Adamantyl)-2-isopropylhydrazine hydrochloride], the “Leishmania amastigote activity score” value in the experiment on L. tropica amastigotes (10 μg) is on record as “± (Partial clearance of parasites in 72 hours or more)”; with L. tropica amastigotes (100 μg), “++ (clearance of all parasites in 48 hours)”. Also, the “Trypanosoma in vitro activity score” value in the experiment on Trypanosoma (100 μg) is on record as “+++ (No viable parasites after 24 hours)”. The “activity against Trypanosoma” value in the experiment with Trypanosoma is given as “active”. Also, in the experiment with Leishmania, the “activity against Leishmania” value was “active”.

As to `N=C(N)c1ccc(OCCCCCOc2ccc(C(=N)N)cc2)cc1` [Pentamidine, reference compound], the “Leishmania promastigote activity score” value in the experiment on L. tropica promastigotes (10 μg) and with L. tropica promastigotes (100 μg) was “+++ (No viable parasites after 24 hours)” each time. For the same compound, the “Trypanosoma in vitro activity score” value in the experiment with Trypanosoma (100 μg) is “++ (No viable parasites after 48 hours)”.

Turning to `FC(F)(F)c1cccc(NNC2C3CC4CC(C3)CC2C4)c1` (stereo not drawn) [Example 6, 1-(2'-Adamantyl)-2-(m-trifluoromethylphenyl)hydrazine hydrochloride], the MIC in experiment [1] (Korthof + 8% serum) stood at 50 µg/mL; in experiment [1] (minimal medium), 12.5 µg/mL. The anti leptospiral activity result in experiment [1] was “active”.

Turning to `CN(C)NC1C2CC3CC(C2)CC1C3` (stereo not drawn) [Example 1, 1-(2'-Adamantyl)-2,2-dimethylhydrazine hydrochloride], the MIC in experiment [1] (Korthof + 8% serum), in experiment [1] (setting [4]) and in experiment [1] (minimal medium) was 12.5 µg/mL each time. For the same compound, the anti leptospiral activity result in experiment [1] is “active”.

`NC12CC3CC(CC(C3)C1)C2` [Symmetrel, reference compound]: the anticataleptic effect with albino rats (rat 1) was 0/4; with albino rats (rat 2), 2/4; in the experiment with albino rats (rat 3) it was 3/4; in the experiment on albino rats (rat 4) it was 3/4; with albino rats (rat 5), 3/4. For the same compound, the stereotyped behaviour score worked out at 0 in the experiment with albino mice [2] (0 min, mouse 1); 0 in the experiment on albino mice [2] (0 min, mouse 2); 0 in the experiment with albino mice [2] (0 min, mouse 3); 0 with albino mice [2] (0 min, mouse 4); 1 with albino mice [2] (30 min, mouse 1); 1 with albino mice [2] (30 min, mouse 2). Further, the stereotyped behaviour score in the experiment with albino mice [2] (30 min, mouse 3) is on record as 1; with albino mice [2] (30 min, mouse 4) it was 1; in the experiment on albino mice [2] (45 min, mouse 3), 1; in the experiment on albino mice [2] (45 min, mouse 4), 1; with albino mice [2] (60 min, mouse 1) it was 2; in the experiment on albino mice [2] (60 min, mouse 2), 2. Further, the stereotyped behaviour score in the experiment with albino mice [2] (60 min, mouse 3) turned out to be 1; with albino mice [2] (60 min, mouse 4), 1; in the experiment with albino mice [2] (90 min, mouse 1), 1; with albino mice [2] (90 min, mouse 2), 1; in the experiment with albino mice [2] (90 min, mouse 3), 2; with albino mice [2] (90 min, mouse 4), 1. Further, the stereotyped behaviour score in the experiment on albino mice [2] (120 min, mouse 1) amounted to 2; in the experiment with albino mice [2] (120 min, mouse 2), 2; in the experiment with albino mice [2] (120 min, mouse 3), 2; with albino mice [2] (120 min, mouse 4) it was 2; in the experiment with albino mice [2] (135 min, mouse 1), 2; with albino mice [2] (135 min, mouse 2), 2. Further, the stereotyped behaviour score in the experiment with albino mice [2] (150 min, mouse 1) is on record as 2; in the experiment on albino mice [2] (150 min, mouse 2), 2; in the experiment with albino mice [2] (150 min, mouse 3) it was 2; in the experiment on albino mice [2] (150 min, mouse 4), 2; in the experiment on albino mice [2] (180 min, mouse 1), 2; with albino mice [2] (180 min, mouse 2), 2. The stereotyped behaviour score turned out to be 2 in the experiment on albino mice [2] (180 min, mouse 3); 2 with albino mice [2] (180 min, mouse 4); 2 in the experiment with albino mice [2] (210 min, mouse 1); 2 in the experiment on albino mice [2] (210 min, mouse 2); 2 with albino mice [2] (210 min, mouse 3); 1 with albino mice [2] (210 min, mouse 4). Besides, the stereotyped behaviour score stood at 2 with albino mice [2] (240 min, mouse 1); 2 with albino mice [2] (240 min, mouse 2); 2 in the experiment on albino mice [2] (240 min, mouse 3); 0 in the experiment with albino mice [2] (240 min, mouse 4); 1 with albino mice [3] (45 min, mouse 1); 1 in the experiment on albino mice [3] (45 min, mouse 2). Also, the stereotyped behaviour score in the experiment with albino mice [3] (135 min, mouse 3) is on record as 2; in the experiment on albino mice [3] (135 min, mouse 4), 2. The “Mean Score” value in the experiment with albino mice [2] (mean of 4 mice) is listed as 16. The “Total Score” value in the experiment on albino mice [2] (mouse 1) turned out to be 17; in the experiment with albino mice [2] (mouse 2) it was 17; in the experiment with albino mice [2] (mouse 3), 17; in the experiment on albino mice [2] (mouse 4) it was 13.

Regarding `C1CCCN(NC2C3CC4CC(C3)CC2C4)CC1` (stereo not drawn) [Example 11, 1-(2'-Adamantylamino)homopiperidine hydrochloride], the “Trypanosoma in vitro activity score” value in the experiment with Trypanosoma (10 μg) is given as “+ (No viable parasites after 72 hours)”; with Trypanosoma (100 μg) it was “+++ (No viable parasites after 24 hours)”. In the experiment on Trypanosoma, the “activity against Trypanosoma” value is “active”.

Turning to `CN(CC(=O)O)NC1C2CC3CC(C2)CC1C3` (stereo not drawn) [Example 37, [2-(2'-Adamantyl)-1-methylhydrazino]acetic acid hydrochloride], the MIC in experiment [1] (Korthof + 2% serum) is 12.5 µg/mL; in experiment [1] (Korthof + 8% serum), 12.5 to 25 µg/mL; in experiment [1] (setting [4]), 25 µg/mL; in experiment [1] (minimal medium), 25 µg/mL. The anti leptospiral activity result in experiment [1] is “active”.

Regarding `c1ccc(NNC2C3CC4CC(C3)CC2C4)nc1` (stereo not drawn) [Example 8, 1-(2'-Adamantyl)-2-(2"-pyridyl)hydrazine hydrochloride], the “Leishmania amastigote activity score” value in the experiment with L. tropica amastigotes (10 μg) is reported as “+ (clearance of all parasites in 72 hours)”; in the experiment on L. tropica amastigotes (100 μg), “+++ (clearance of all parasites in 24 hours)”. Besides, the “Trypanosoma in vitro activity score” value is “+ (No viable parasites after 72 hours)” in the experiment on Trypanosoma (10 μg) and “+++ (No viable parasites after 24 hours)” with Trypanosoma (100 μg). The “activity against Trypanosoma” value in the experiment with Trypanosoma is “active”. Besides, the “activity against Leishmania” value in the experiment with Leishmania was “active”.
